This passage reports EC50 and IC50 results from patent US10316017B2, “COT modulators and methods of use thereof” (Gilead Sciences, Inc., priority 2015, dated 2019).

pEC50, pIC50: −log10 of the molar value. Where two headings read alike, the source gives them in different places. Bounds are passed on as bounds.

Assay [1] concerns TNFα production in LPS-stimulated human monocytes. In words: Cot Monocyte TNFα Cell Based Assay. Particulars: Homo sapiens, Monocyte, read-out: EC50 TNF. A digest of the protocol: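 TNFα release quantified by two-antibody TR-FRET, normalised to unstimulated (0%) and LPS-stimulated (100%) wells. Cells got a 1 h compound exposure at 37° C in 0.5% DMSO before 4 h challenge with 50 pg/ml LPS, at 5,000 cells/well.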

For assay [2], the target named is T1, human Cot catalytic domain (30-397 amino acids) (Homo sapiens, UniProt P41279).
T1 construct: Purified recombinant human Cot catalytic domain (30-397 amino acids) was purchased from Cama Biosciences; purchased Cama Biosciences (so in the source)
In words: High Throughput Cot Biochemical Assay (KinEASE TR-FRET). Particulars: read-out: IC50 HTRF. An outline of the steps:
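TR-FRET (KinEASE) read-out: Eu-labelled phospho-specific antibody binds XL665-tagged STK3 peptide (1 μM) phosphorylated by 5 nM human Cot kinase domain (residues 30-397). Reaction at 400 μM ATP, pH 7.0 MOPS buffer with 10 mM MgOAc, 1 mM DTT and 0.1% DMSO.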
On the technique in general: TR-FRET usually uses a lanthanide donor and a delayed reading to cut background.

The mark [3] stands for this setting: TNFα in LPS-stimulated human monocytes.
The mark [4] stands for this setting: Cot KinEASE TR-FRET (HTRF) biochemical assay, 400 μM ATP.
Setting [5] is: Cot biochemical HTRF (KinEASE TR-FRET) assay.
Where [6] appears, read: LPS-stimulated human monocytes, TNFα TR-FRET.
The mark [7] stands for this setting: Cot KinEASE TR-FRET, 400 μM ATP.

T1 sequence (P41279 30-397): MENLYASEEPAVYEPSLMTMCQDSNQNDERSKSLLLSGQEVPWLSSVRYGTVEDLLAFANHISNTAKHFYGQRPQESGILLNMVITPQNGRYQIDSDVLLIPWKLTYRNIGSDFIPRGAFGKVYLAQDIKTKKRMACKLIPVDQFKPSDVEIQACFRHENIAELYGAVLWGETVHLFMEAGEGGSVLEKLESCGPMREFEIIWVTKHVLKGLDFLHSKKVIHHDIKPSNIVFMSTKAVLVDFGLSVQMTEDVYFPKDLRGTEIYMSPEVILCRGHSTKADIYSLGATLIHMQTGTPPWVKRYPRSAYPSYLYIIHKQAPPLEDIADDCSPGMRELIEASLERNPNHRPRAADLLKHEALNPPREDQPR

What is called pEC50 is −log10 of the EC50, conventionally taken in molar units. As usually defined, the pIC50 is the IC50 on a negative log10 scale, so that one unit is a factor of ten. `[2H][C@](Nc1cc(C#N)c2ncc(C#N)c(N[C@H](CC)c3ccccc3)c2c1)(c1ccc(F)cc1)c1cn(C2(C(F)(F)F)CC2)nn1` [Example 132, 6-(((S)-(4-fluorophenyl) (1-(1-(trifluoromethyl)cyclopropyl)-1H-1,2,3-triazol-4-yl)methyl-d)amino)-4-(((R)-1-phenylpropyl)amino)quinoline-3,8-dicarbonitrile]: the pEC50 in assay [1] (setting [3]) is 6.85. Further, in assay [2] (setting [4]), the pIC50 was 7.85.
In the same order, the values of `[2H][C@@](Nc1cc(C(C)=O)c2ncc(C#N)c(Nc3cccc(Cl)c3)c2c1)(c1cn(C2CC2)nn1)c1ccccc1Cl` [Example 85, (S)-8-acetyl-6-(((2-chlorophenyl)(1-cyclopropyl-1H-1,2,3-triazol-4-yl)methyl-d)amino)-4-((3-chlorophenyl)amino)quinoline-3-carbonitrile] are 6.06 and 7.38.
The corresponding values for `[2H][C@](Nc1cc(Cl)c2ncc(C#N)c(NCC(C)(C)C)c2c1)(c1ccc(F)cc1)c1cn(C2CC2)nn1` [Compound 1] are 6.84 and 8.22.
Turning to `CC(C)(C)N1CCC(n2cc([C@@H](Nc3cc(Cl)c4ncc(C#N)c(N[C@H]5CCCc6ccccc65)c4c3)c3ccccc3)nn2)CC1` [Example 488, 6-(((S)-(1-(1-(tert-butyl)piperidin-4-yl)-1H-1,2,3-triazol-4-yl)(phenyl)methyl)amino)-8-chloro-4-(((S)-1,2,3,4-tetrahydronaphthalen-1-yl)amino)quinoline-3-carbonitrile], in assay [1] (setting [3]), the pEC50 was 5.05. In addition, the pIC50 in assay [2] (setting [5]) is 5.88.
As to `[2H]C(Nc1cc(Cl)c2ncc(C#N)c(NCC(C)(C)C)c2c1)(c1ccc(F)cc1)c1nnnn1Cc1ccc(OC)cc1` (stereo not shown) [Example 263, 8-chloro-6-(((4-fluorophenyl) (1-(4-methoxybenzyl)-1H-tetrazol-5-yl)methyl-d)amino)-4-(neopentylamino)quinoline-3-carbonitrile], in assay [1] (setting [3]), the pEC50 is less than 5.00. Further, in assay [2] (setting [4]), the pIC50 was 6.13.
The corresponding values for `[2H][C@](Nc1cc(Cl)c2ncc(C#N)c(NCCc3nccs3)c2c1)(c1ccc(F)cc1)c1cn(C2CC2)nn1` [Example 147, (S)-8-chloro-6-(((1-cyclopropyl-1H-1,2,3-triazol-4-yl)(4-fluorophenyl)methyl-d)amino)-4-((2-(thiazol-2-yl)ethyl)amino) quinoline-3-carbonitrile] are 5.44 and 6.60.
Take `Cn1cnnc1C(Nc1cc(Cl)c2ncc(C#N)c(Nc3ccc(F)c(Cl)c3)c2c1)c1ccc(F)cc1` (stereo not shown) [Example 854, 8-chloro-4-((3-chloro-4-fluorophenyl)amino)-6-(((4-fluorophenyl)(4-methyl-4H-1,2,4-triazol-3-yl)methyl)amino)quinoline-3-carbonitrile]: in assay [1] (setting [3]), the pEC50 is less than 5.00. Besides, the pIC50 in assay [2] (setting [5]) is 6.33.
For `CC(C)(C)CNc1c(C#N)cnc2c(C#N)cc(N[C@@H](c3ccc(F)cc3)c3cn(C4(c5ccccn5)CC4)nn3)cc12` [Example 968, (S)-6-(((4-fluorophenyl)(1-(1-(pyridin-2-yl)cyclopropyl)-1H-1,2,3-triazo1-4-yl)methyl)amino)-4-(neopentylamino) quinoline-3,8-dicarbonitrile], the pEC50 in assay [1] (setting [6]) is 6.96. Moreover, the pIC50 in assay [2] (setting [7]) is 7.77.
For `CC(C)(C)N1CCC(n2cc([C@@H](Nc3cc(Cl)c4ncc(C#N)c(NC5CCCCCC5)c4c3)c3ccc(Cl)cc3)nn2)CC1` [Example 716, (S)-6-(((1-(1-(tert-butyl)piperidin-4-yl)-1H-1,2,3-triazol-4-yl)(4-chlorophenyl)methyl)amino)-8-chloro-4-(cycloheptylamino)quinoline-3-carbonitrile], the pEC50 in assay [1] (setting [3]) is 6.07. In assay [2] (setting [5]), the pIC50 was 7.22.
`[2H][C@](Nc1cc(Cl)c2ncc(C#N)c(N[C@H](CC)c3ccccc3)c2c1)(c1cccc(C#N)c1)c1cnnn1C1CC1` [Compound 37]: the pEC50 in assay [1] (setting [3]) was less than 6.00. Moreover, the pIC50 in assay [2] (setting [4]) is 6.09.
Turning to `Cc1cc(F)ccc1C(Nc1cc(Cl)c2ncc(C#N)c(Nc3ccc(F)c(Cl)c3)c2c1)c1cn(C2CCNCC2)nn1` (stereo not shown) [Example 884, 8-chloro-4-((3-chloro-4-fluorophenyl)amino)-6-(((4-fluoro-2-methylphenyl) (1-(piperidin-4-yl)-1H-1,2,3-triazol-4-yl)methyl)amino)quinoline-3-carbonitrile], in assay [1] (setting [3]), the pEC50 is 6.33. The pIC50 in assay [2] (setting [5]) is 7.96.
In the case of `CCN1CCC(n2cc([C@@H](Nc3cc(Cl)c4ncc(C#N)c(Nc5ccc(F)c(Cl)c5)c4c3)c3ccc(F)cc3)nn2)CC1` [Compound 5], in assay [1] (setting [3]), the negative-log EC50 (pEC50) is 6.82. Besides, the pIC50 in assay [2] (setting [4]) was 8.70.
In the same order, the values of `[2H][C@](Nc1cc(Cl)c2ncc(C#N)c(NCC3(C)CCOCC3)c2c1)(c1ccc(F)cc1)c1cn(C2CC2)nn1` [Example 333, (S)-8-chloro-6-(((1-cyclopropyl-1H-1,2,3-triazol-4-yl)(4-fluorophenyl)methyl-d)amino)-4-(((4-methyltetrahydro-2H-pyran-4-yl)methyl)amino) quinoline-3-carbonitrile] are 6.59 and 8.05.
In the case of `CC[C@@H](Nc1c(C#N)cnc2c(Cl)cc(N[C@H](c3cn(C4(C#N)CC4)nn3)c3ccccc3Cl)cc12)c1ccccc1` [Example 49, 8-chloro-6-(((S)-(2-chlorophenyl)(1-(1-cyanocyclopropyl)-1H-1,2,3-triazol-4-yl)methyl)amino)-4-(((R)-1-phenylpropyl)amino) quinoline-3-carbonitrile], the pEC50 in assay [1] (setting [3]) is 6.48. Further, the pIC50 in assay [2] (setting [4]) is 7.59.
As to `N#Cc1cnc2c(Cl)cc(N[C@@H](c3ccc(F)cc3)c3c[nH]nn3)cc2c1NCC1CCOC1` (stereo partly drawn) [Example 420, 8-chloro-6-(((S)-(4-fluorophenyl)(1H-1,2,3-triazol-4-yl)methyl)amino)-4-(((tetrahydrofuran-3-yl)methyl)amino)quinoline-3-carbonitrile], in assay [1] (setting [3]), the pEC50 is 5.29. The pIC50 in assay [2] (setting [5]) was 6.72.
`N#Cc1cnc2c(Cl)cc(N[C@@H](c3cccc(F)c3)c3cn(C4CC4)nn3)cc2c1Nc1cnc(F)c(F)c1` [Example 265, (S)-8-chloro-6-(((1-cyclopropyl-1H-1,2,3-triazol-4-yl)(3-fluorophenyl)methyl)amino)-4-((5,6-difluoropyridin-3-yl)amino)quinoline-3-carbonitrile]: the pEC50 in assay [1] (setting [3]) was 6.33. Also, the pIC50 in assay [2] (setting [4]) is 7.92.
For `[2H][C@](Nc1cc(Cl)c2ncc(C#N)c(NCC3(C(F)F)CCC3)c2c1)(c1ccc(F)cc1)c1cn(C2CC2)nn1` [Example 198], the pEC50 in assay [1] (setting [3]) is 6.64. Moreover, in assay [2] (setting [4]), the pIC50 is 7.92.
In the case of `CC(C)(C)CNc1c(C#N)cnc2c(Cl)cc(N[C@@H](c3ccc(F)cc3)c3cn(C4(C#N)CC4)nn3)cc12` [Example 989, (S)-8-chloro-6-(((1-(1-cyanocyclopropyl)-1H-1,2,3-triazol-4-yl)(4-fluorophenyl)methyl)amino)-4-(neopentylamino)quinoline-3-carbonitrile], the pEC50 in assay [1] (setting [6]) is 6.95. Besides, the pIC50 in assay [2] (setting [7]) was 7.92.
In the same order, the values of `Cc1c([C@H](Nc2cc(C#N)c3ncc(C#N)c(NCC(C)(C)C)c3c2)c2cn(C3(C(F)F)CC3)nn2)cccc1-n1cncn1` [Example 1054, (S)-6-(((1-(1-(difluoromethyl)cyclopropyl)-1H-1,2,3-triazol-4-yl)(2-methyl-3-(1H-1,2,4-triazol-1-yl)phenyl)methyl)amino)-4-(neopentylamino)quinoline-3,8-dicarbonitrile] are 7.09 and 9.00.
For the compound `[2H][C@](Nc1cc(C#N)c2ncc(C#N)c(N[C@H](CC#N)c3ccccc3)c2c1)(c1ccc(F)cc1)c1cn(C2CC2)nn1` [Example 202, 4-(((R)-2-cyano-1-phenylethyl)amino)-6-(((S)-(1-cyclopropyl-1H-1,2,3-triazol-4-yl)(4-fluorophenyl)methyl-d)amino)quinoline-3,8-dicarbonitrile], the pEC50 in assay [1] (setting [3]) is 7.36. Also, the pIC50 in assay [2] (setting [4]) was 8.70.
`COc1[nH]nnc1C(Nc1cc(Cl)c2ncc(C#N)c(Nc3cnc(F)c(F)c3)c2c1)c1ccc(F)cc1` (stereo not shown) [Example 435, 8-chloro-4-((5,6-difluoropyridin-3-yl)amino)-6-(((4-fluorophenyl)(5-methoxy-1H-1,2,3-triazol-4-yl)methyl)amino)quinoline-3-carbonitrile]: the pEC50 in assay [1] (setting [3]) was less than 5.00. Moreover, the pIC50 in assay [2] (setting [5]) was 5.10.
The corresponding values for `CC[C@@H](Nc1c(C#N)cnc2c(Cl)cc(N[C@@H](c3cccc(C(=O)N4CC(OC)C4)c3)c3c[nH]nn3)cc12)c1ccccc1` [Example 559, 8-chloro-6-(((S)-(3-(3-methoxyazetidine-1-carbonyl)phenyl)(1H-1,2,3-triazol-4-yl)methyl)amino)-4-(((R)-1-phenylpropyl)amino)quinoline-3-carbonitrile] are 5.22 and 7.85.
As to `[2H][C@](Nc1cc(Cl)c2ncc(C#N)c(Nc3cccc(Cl)c3)c2c1)(c1cccc(C#N)c1)c1cn(C2CC2)nn1` [Example 274, (S)-8-chloro-4-((3-chlorophenyl)amino)-6-(((3-cyanophenyl)(1-cyclopropyl-1H-1,2,3-triazol-4-yl)methyl-d)amino)quinoline-3-carbonitrile], the pEC50 in assay [1] (setting [3]) is 6.60. The pIC50 in assay [2] (setting [4]) is 8.30.
